The data set in a line: gradient 5% acetonitrile 3 min, to 50% in 2 min, to 85% in 15 min, held 3 min, 100 µL/min. The conditions noted are these: column: Zorbax Extend-C18 2.1 x 50 mm; eluents: water / acetonitrile, 0.1% formic acid. The method in brief: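 Standards, all pure, were combined into mixtures of ~100 molecules and run at 100 μL/min on a Zorbax Extend-C18 column (2.1 × 50 mm, 1.8 μm) with water and acetonitrile, each containing 0.1% formic acid. A coupled quadrupole time-of-flight mass spectrometer operated in positive and negative ionization mode. Retention time values come from computationally picked adduct peaks, each inspected manually.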
`O=C(NCc1cc(F)ccc1F)C1CCc2nc(N3CCOCC3)ncc2C1` (centres undefined) yielded an RP-LC retention time of 715 s.
The compound `Cc1oc(-c2ccc(C(=O)NCCCN3CCOCC3)cc2)nc1CN1CCc2ccccc21` gave an RP-LC retention time of 603 s.
`CC1(C(=O)NCc2ccccc2)CN(S(=O)(=O)c2ccccc2)CC(=O)N1C1CCCC1` (centres undefined) showed an RP-LC retention time of 787 s.
In turn, `CCOC(=O)N1CCN(c2ncc(C(=O)Nc3ccccc3)c(N)n2)CC1` had an RP-LC retention time of 692 s.
As for `COc1ccc(CNC(=O)c2ccc3c(c2)N(C)C(=O)c2ccccc2O3)cc1`, the figure is 863 s; as for `CCOC(=O)c1cn(CC(=O)Nc2cc(F)ccc2F)nn1`, 740 s.
With `Cc1cccnc1NC(=O)C1c2ccccc2C(=O)N(Cc2ccccc2)C12CCCC2` (centres undefined), the RP-LC retention time came out at 782 s.
Compound `Cc1noc(C)c1C1CCCN1C(=O)c1ccnn1C` (centres undefined) yielded an RP-LC retention time of 638 s.
Compound `COc1cc(F)c(F)c(Nc2ccc(I)cc2F)c1NS(=O)(=O)C1(C[C@H](O)CO)CC1` had an RP-LC retention time of 1050 s.
`CSc1cccc(NC(=O)C2CCN(c3nccc(C)n3)CC2)c1` gave an RP-LC retention time of 700 s.
Compound `CC1(c2nc(C3CC3)no2)CCCN(C(=O)c2ccc3nc[nH]c3c2)C1` (centres undefined) gave an RP-LC retention time of 595 s.
In the case of `Cc1ccc(Cl)cc1NCc1nnc2n1CCCCC2`, the RP-LC retention time was determined as 739 s.
As for `O=c1cc(-c2ccc(O)cc2)oc2cc(O[C@@H]3O[C@H](CO)[C@H](O)[C@H](O)[C@H]3O)cc(O)c12`, the figure is 746 s; as for `O=C(CN1CCN(Cc2cccc(Cl)c2)C1=O)NCc1ccc(C(F)(F)F)cc1`, 931 s; as for `CNC(=O)c1cn(-c2ccc(-c3nc(C(C)(C)C)no3)cn2)cn1`, 806 s.
Compound `Cc1cc2[nH]c(C(=O)Nc3ccccc3F)c(CN(C)C)c2s1` yielded an RP-LC retention time of 654 s.
In turn, `COc1ccc2[nH]cc(CCNC(=O)C34CCC=C3N(C3CCCC3)C(=O)CC4)c2c1` (centres undefined) came in with an RP-LC retention time of 798 s.
`Cc1ccc(-c2nc3cccnc3n2CCN2CCN(C(=O)NC3CCCC3)CC2)cc1`: the RP-LC retention time worked out at 627 s.
In turn, `CCOc1ccc(S(=O)(=O)N2CCCC2c2nc(-c3cccc(Cl)c3)no2)cc1` (centres undefined) came in with an RP-LC retention time of 1230 s.
As for `CC1(C(=O)NCc2ccc3c(c2)OCO3)CCN(C(=O)Nc2ccccc2C(F)(F)F)CC1`, the figure is 812 s.
`COc1ccc(NC(=O)Cn2nc(N3CCC(C)CC3)c3ccccc3c2=O)c(OC)c1`: the RP-LC retention time was 1130 s.
As for `CCOCC(=O)NCc1ccc2c(c1)CCCN2C(=O)C1CCC1`, the figure is 750 s; as for `Cc1ccc(-c2csc(NC(=O)Cc3csc(-c4ccccc4)n3)n2)cc1`, 1210 s.
Consider `CC(NC(=O)c1nnc(-c2ccc(S(=O)(=O)N(C)C)cc2)o1)c1ccccc1` (centres undefined), for which the RP-LC retention time came out at 840 s.
In turn, `Cc1noc(C)c1-c1ccc(S(=O)(=O)N2CCCCCC2)cc1` came in with an RP-LC retention time of 1020 s.
`Cc1ccc(CN(C)Cc2cc(=O)n3cc(Cl)ccc3n2)cc1` displayed an RP-LC retention time of 629 s.
`Cc1ccc(CNC(=O)C2CCN(S(=O)(=O)c3c(C)[nH]c(C)c3C(=O)N3CCCC3)CC2)o1` yielded an RP-LC retention time of 679 s.
Compound `Cn1cccc(C(=O)N2CCC3(CC2)OCCN3S(=O)(=O)c2ccccc2)c1=O` gave an RP-LC retention time of 616 s.
In turn, `CCCNC(=O)c1cnn(-c2ccc(-c3nc(C(C)(C)C)no3)cn2)c1C` returned an RP-LC retention time of 1070 s.
`Cc1ccc(-c2nc(-c3cccc(-c4ccnn4C)c3)no2)s1` gave an RP-LC retention time of 1160 s.
As for `COc1cccc(-c2nc(-c3ccc4c(c3)ncn4CCN3CCCCC3)no2)c1OC`, the figure is 680 s; as for `Cc1ccc(S(=O)(=O)CCc2noc(C(=O)NCCCN3CCC(C)CC3)n2)cc1`, 637 s; as for `c1cncc(-c2n[nH]c(C3CCCCN3)n2)c1` (centres undefined), 555 s.
Regarding `O=C(Nc1ccccc1F)C1CCN(S(=O)(=O)c2cc(C(=O)N3CCOCC3)cs2)CC1`, the RP-LC retention time was 742 s.
In turn, `CCOc1ccc(-c2[nH]ncc2CN2CCn3c(nn(C)c3=O)C2)cc1` showed an RP-LC retention time of 618 s.
In the case of `Cc1cc(C2CCCN2C(=O)Nc2ccc(C)c(F)c2)on1` (centres undefined), the RP-LC retention time is 822 s.
`CC(=O)N1c2ccc(S(=O)(=O)N3CCCCCC3)cc2CC1C(=O)NC(C)c1ccccc1` (centres undefined) came in with an RP-LC retention time of 925 s.
`COc1ccc(CNC(=O)c2cn(-c3cc(N4CCCC(C)C4)ncn3)cn2)cc1` (centres undefined): the RP-LC retention time worked out at 974 s.
In turn, `Cc1ccc(Nc2c(-c3cccc(O)c3)nc3cnccn23)c(C)c1` showed an RP-LC retention time of 750 s.
Compound `CCCc1cnc2c(c1SCC(=O)N(CC)CC)c(=O)n(C)c(=O)n2C` showed an RP-LC retention time of 892 s.
As to `Cc1nc2cc(-c3noc(CCc4ccccc4)n3)ccc2o1`, the RP-LC retention time amounted to 1050 s.
Regarding `Cc1ccc(Cl)cc1NC(=O)C1CCCN1S(=O)(=O)c1cc2c(cc1C)NC(=O)CO2` (centres undefined), the RP-LC retention time stood at 842 s.
The compound `CC(C)CNC(=O)Cc1nnc(-c2cccc(F)c2)o1` yielded an RP-LC retention time of 744 s.
`C[C@H]1CN(C(=O)NCc2ccccc2)C[C@@H]1c1nc(-c2ccncc2)no1`: the RP-LC retention time stood at 715 s.
Take `O=c1c2cnc3nc(-c4ccccc4)nn3c2ccn1CCc1c[nH]c2ccc(F)cc12`: the RP-LC retention time was found to be 941 s.
Consider `C=CCN1C(=O)COc2ccc(-c3csc(NC(=O)CC)n3)cc21`, for which the RP-LC retention time was found to be 837 s.
For the compound `Cc1nc(-c2cn(C(C)C)c3ncccc23)sc1C(=O)N1CCN(C)CC1`, the RP-LC retention time is 611 s.
`Cc1ccccc1-c1nc(C2CCN(S(=O)(=O)c3cccc(F)c3)CC2)no1`: the RP-LC retention time came out at 1160 s.
As for `Cc1cccc(-c2nocc2CCC(=O)NC(C)c2ccc(F)cc2)c1` (centres undefined), the RP-LC retention time came to 965 s.
As to `O=C(COc1ccc([N+](=O)[O-])cc1Cl)N1CCOCC1`, the RP-LC retention time was 846 s.
As for `Cc1ccc(C)c(-c2cc3c(=O)n(Cc4noc(-c5ccc6c(c5)OCO6)n4)ccn3n2)c1`, the figure is 1120 s; as for `COc1ccc(C(=O)N2C[C@@H]3C[C@H](NC(=O)c4cccs4)[C@H]2C3)cc1F`, 733 s; as for `O=C(c1cc2occc2c(Nc2ccc(Cl)cc2)n1)N1CCN(C(=O)c2ccco2)CC1`, 861 s.
As for `CCC1CCCCN1CCCNC(=O)c1ccnc(-c2cccs2)c1` (centres undefined), the figure is 627 s; as for `COc1ccccc1NC(=O)c1ccc(CSc2ncccn2)cc1`, 603 s.
Take `Cc1cnn(CC(=O)N2CCc3nn(CC4CC4)c(=O)n3CC2)c1`: the RP-LC retention time was 617 s.
In turn, `Cc1ccc(C)c(CN2CCC(CNC(=O)c3c(C)oc4c3C3=NCCN3C=N4)CC2)c1` registered an RP-LC retention time of 561 s.
In turn, `Cc1ncoc1C(=O)N(C)C1CCc2nn(CC3CC3)c(=O)n2CC1` (centres undefined) returned an RP-LC retention time of 594 s.
On to `Cc1nn2c(CNC(=O)c3ccoc3)c(-c3ccccc3)nc2s1`, for which the RP-LC retention time is 742 s.
